The record followed here is patent US11713338B2, “Cyclic peptides multimers targeting α-4-β-7 integrin” (priority 2016, dated 2023).

For the first test, the target named is T1, integrin α4β7 (RPMI8866 human cells adhering to MAdCAM-1) (Homo sapiens, UniProt P13612+P26010).
T1 construct: RMP18866 cells, which express integrin α4β7; host or cells: RPMI8866
T1 sequence (P13612 34-1032): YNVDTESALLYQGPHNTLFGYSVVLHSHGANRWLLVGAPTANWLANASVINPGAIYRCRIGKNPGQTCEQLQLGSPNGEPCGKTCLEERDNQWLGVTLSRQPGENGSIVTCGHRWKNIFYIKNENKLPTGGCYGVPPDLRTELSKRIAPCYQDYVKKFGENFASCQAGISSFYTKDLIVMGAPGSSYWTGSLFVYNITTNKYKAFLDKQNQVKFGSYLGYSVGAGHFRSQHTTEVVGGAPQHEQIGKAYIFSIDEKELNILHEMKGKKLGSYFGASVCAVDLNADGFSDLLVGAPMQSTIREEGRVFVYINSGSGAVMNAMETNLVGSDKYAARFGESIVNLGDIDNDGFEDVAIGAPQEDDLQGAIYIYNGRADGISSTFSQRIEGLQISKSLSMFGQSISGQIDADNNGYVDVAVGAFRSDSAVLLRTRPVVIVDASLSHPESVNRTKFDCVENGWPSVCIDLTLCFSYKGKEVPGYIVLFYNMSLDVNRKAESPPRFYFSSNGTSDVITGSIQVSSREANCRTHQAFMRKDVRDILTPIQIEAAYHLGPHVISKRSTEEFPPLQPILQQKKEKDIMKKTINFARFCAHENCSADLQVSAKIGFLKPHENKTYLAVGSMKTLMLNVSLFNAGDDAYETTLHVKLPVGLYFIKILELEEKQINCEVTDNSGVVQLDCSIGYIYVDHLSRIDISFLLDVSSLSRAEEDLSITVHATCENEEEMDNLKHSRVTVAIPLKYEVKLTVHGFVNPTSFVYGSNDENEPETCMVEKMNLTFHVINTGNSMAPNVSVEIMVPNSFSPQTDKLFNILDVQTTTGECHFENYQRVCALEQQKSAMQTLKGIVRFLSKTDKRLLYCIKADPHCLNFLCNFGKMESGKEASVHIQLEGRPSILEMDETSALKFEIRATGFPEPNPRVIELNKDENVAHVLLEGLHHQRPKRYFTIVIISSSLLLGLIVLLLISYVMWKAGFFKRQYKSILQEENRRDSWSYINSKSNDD
T1 sequence (P26010 20-798): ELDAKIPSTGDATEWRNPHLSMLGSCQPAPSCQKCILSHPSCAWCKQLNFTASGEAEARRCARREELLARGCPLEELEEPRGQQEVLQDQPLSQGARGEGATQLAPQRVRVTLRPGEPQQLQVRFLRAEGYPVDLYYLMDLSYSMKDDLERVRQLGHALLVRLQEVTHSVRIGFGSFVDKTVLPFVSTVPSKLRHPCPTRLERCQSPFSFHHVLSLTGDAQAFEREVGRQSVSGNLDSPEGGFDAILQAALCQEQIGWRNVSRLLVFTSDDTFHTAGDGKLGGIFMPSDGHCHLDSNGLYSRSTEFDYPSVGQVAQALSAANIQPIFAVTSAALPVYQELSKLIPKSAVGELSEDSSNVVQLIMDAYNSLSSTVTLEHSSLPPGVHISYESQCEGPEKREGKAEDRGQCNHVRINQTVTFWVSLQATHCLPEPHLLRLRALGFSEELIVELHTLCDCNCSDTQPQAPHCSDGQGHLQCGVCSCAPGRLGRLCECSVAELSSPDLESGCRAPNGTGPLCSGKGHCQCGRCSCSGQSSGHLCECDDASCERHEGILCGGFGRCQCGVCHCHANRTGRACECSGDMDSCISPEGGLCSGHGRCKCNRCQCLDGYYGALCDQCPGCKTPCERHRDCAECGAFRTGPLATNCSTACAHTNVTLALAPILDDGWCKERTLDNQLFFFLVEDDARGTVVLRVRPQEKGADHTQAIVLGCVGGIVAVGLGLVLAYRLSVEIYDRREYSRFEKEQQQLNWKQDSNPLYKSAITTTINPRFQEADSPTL
Put plainly: Integrin α4β7-MAdCAM cell adhesion assay (RPMI8866 cells). The format is cell-based. The note with it: RPMI8866 cells adhering to MAdCAM; read-out: RPMI8866 Adhesion α4β7/MAdCAM IC50. The method in brief:
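Adhesion was read by calcein fluorescence. RPMI8866 cells were labelled at 10 million cells/ml with […] calcein (37° C., 30 min) and washed twice in PBS before reading. Dose-response values were corrected by subtracting cell-free control well fluorescence.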
Regarding `CC(C)C[C@@H]1NC(=O)c2ccc(-c3ccc(N4CCN(C(=O)c5ccc(C(=O)N6CCN(c7ccc(-c8ccc9cc8CNC(=O)[C@@H]8CCCN8[C@H](C(=O)NC(C)(C)C)[C@H](C)NC(=O)[C@H]([C@@H](C)O)NC(=O)[C@H](CC(=O)O)NC(=O)[C@H](CC(C)C)NC9=O)cc7)CC6)s5)CC4)cc3)c(c2)CNC(=O)[C@@H]2CCCN2[C@H](C(=O)NC(C)(C)C)[C@H](C)NC(=O)[C@H]([C@@H](C)O)NC(=O)[C@H](CC(=O)O)NC1=O` [Compound 470], the IC50 is 0.017 µM.

As for `CC(C)C[C@@H]1NC(=O)c2ccc(-c3ccc(N4CCN(Cc5cc(CN6CCN(c7ccc(-c8ccc9cc8CNC(=O)[C@@H]8CCCN8[C@H](C(=O)NC(C)(C)C)[C@H](C)NC(=O)[C@H]([C@@H](C)O)NC(=O)[C@H](CC(=O)O)NC(=O)[C@H](CC(C)C)NC9=O)cc7)CC6)cc(CN6CCN(c7ccc(-c8ccc9cc8CNC(=O)[C@@H]8CCCN8[C@H](C(=O)NC(C)(C)C)[C@H](C)NC(=O)[C@H]([C@@H](C)O)NC(=O)[C@H](CC(=O)O)NC(=O)[C@H](CC(C)C)NC9=O)cc7)CC6)c5)CC4)cc3)c(c2)CNC(=O)[C@@H]2CCCN2[C@H](C(=O)NC(C)(C)C)[C@H](C)NC(=O)[C@H]([C@@H](C)O)NC(=O)[C@H](CC(=O)O)NC1=O` [Compound 518], the IC50 is 0.018 µM.

As for `CC(C)C[C@@H]1NC(=O)C[C@H](CCCCN)N(C)C(=O)[C@H](CCCCNC(=O)CCOCCOCCOCCOCCOCCOCCOCCC(=O)NCCCC[C@@H]2NC(=O)[C@@H]3CCCN3[C@H](C(=O)NC(C)(C)C)[C@H](C)NC(=O)[C@H]([C@@H](C)O)NC(=O)[C@H](CC(=O)O)NC(=O)[C@H](CC(C)C)NC(=O)C[C@H](CCCCN)N(C)C2=O)NC(=O)[C@@H]2CCCN2[C@H](C(=O)NC(C)(C)C)[C@H](C)NC(=O)[C@H]([C@@H](C)O)NC(=O)[C@H](CC(=O)O)NC1=O` [Compound 536], the IC50 stood at 0.016 µM.

Regarding `CC(C)C[C@@H]1NC(=O)C[C@H](CCCCN)N(C)C(=O)[C@H](CCCCNC(=O)c2ccccc2-c2ccccc2C(=O)NCCCC[C@@H]2NC(=O)[C@@H]3CCCN3[C@H](C(=O)NC(C)(C)C)[C@H](C)NC(=O)[C@H]([C@@H](C)O)NC(=O)[C@H](CC(=O)O)NC(=O)[C@H](CC(C)C)NC(=O)C[C@H](CCCCN)N(C)C2=O)NC(=O)[C@@H]2CCCN2[C@H](C(=O)NC(C)(C)C)[C@H](C)NC(=O)[C@H]([C@@H](C)O)NC(=O)[C@H](CC(=O)O)NC1=O` [Compound 535], the IC50 worked out at 0.015 µM.

Take `CC(C)C[C@@H]1NC(=O)c2ccc(-c3ccc(N4CCN(CCC(=O)N5CCN(c6ccc(-c7ccc8cc7CNC(=O)[C@@H]7CCCN7[C@H](C(=O)NC(C)(C)C)[C@H](C)NC(=O)[C@H]([C@@H](C)O)NC(=O)[C@H](CC(=O)O)NC(=O)[C@H](CC(C)C)NC8=O)cc6)CC5)CC4)cc3)c(c2)CNC(=O)[C@@H]2CCCN2[C@H](C(=O)NC(C)(C)C)[C@H](C)NC(=O)[C@H]([C@@H](C)O)NC(=O)[C@H](CC(=O)O)NC1=O` [Compound 482]: the IC50 came out at 0.026 µM.

As to `CC(C)C[C@@H]1NC(=O)c2ccc(-c3ccc(N4CCN(C(=O)c5nccnc5C(=O)N5CCN(c6ccc(-c7ccc8cc7CNC(=O)[C@@H]7CCCN7[C@H](C(=O)NC(C)(C)C)[C@H](C)NC(=O)[C@H]([C@@H](C)O)NC(=O)[C@H](CC(=O)O)NC(=O)[C@H](CC(C)C)NC8=O)cc6)CC5)CC4)cc3)c(c2)CNC(=O)[C@@H]2CCCN2[C@H](C(=O)NC(C)(C)C)[C@H](C)NC(=O)[C@H]([C@@H](C)O)NC(=O)[C@H](CC(=O)O)NC1=O` [Compound 467], the IC50 is 0.043 µM.

For the molecule `CC(C)C[C@@H]1NC(=O)c2ccc(-c3ccc(N4CCN(CC(=O)N5CCN(c6ccc(-c7ccc8cc7CNC(=O)[C@@H]7CCCN7[C@H](C(=O)NC(C)(C)C)[C@H](C)NC(=O)[C@H]([C@@H](C)O)NC(=O)[C@H](CC(=O)O)NC(=O)[C@H](CC(C)C)NC8=O)cc6)CC5)CC4)cc3)c(c2)CNC(=O)[C@@H]2CCCN2[C@H](C(=O)NC(C)(C)C)[C@H](C)NC(=O)[C@H]([C@@H](C)O)NC(=O)[C@H](CC(=O)O)NC1=O` [Compound 481], the IC50 worked out at 0.036 µM.

For the molecule `CC(C)C[C@@H]1NC(=O)c2ccc(-c3ccc(N4CCN(C(=O)CCC(=O)N5CCN(c6ccc(-c7ccc8cc7CNC(=O)[C@@H]7CCCN7[C@H](C(=O)NC(C)(C)C)[C@H](C)NC(=O)[C@H]([C@@H](C)O)NC(=O)[C@H](CC(=O)O)NC(=O)[C@H](CC(C)C)NC8=O)cc6)CC5)CC4)cc3)c(c2)CNC(=O)[C@@H]2CCCN2[C@H](C(=O)NC(C)(C)C)[C@H](C)NC(=O)[C@H]([C@@H](C)O)NC(=O)[C@H](CC(=O)O)NC1=O` [Compound 484], the IC50 was 0.014 µM.

Take `CC(C)C[C@@H]1NC(=O)C[C@H](CCCCN)N(C)C(=O)[C@H](CCCCNC(=O)CCCCCCCC(=O)NCCCC[C@@H]2NC(=O)[C@@H]3CCCN3[C@H](C(=O)NC(C)(C)C)[C@H](C)NC(=O)[C@H]([C@@H](C)O)NC(=O)[C@H](CC(=O)O)NC(=O)[C@H](CC(C)C)NC(=O)C[C@H](CCCCN)N(C)C2=O)NC(=O)[C@@H]2CCCN2[C@H](C(=O)NC(C)(C)C)[C@H](C)NC(=O)[C@H]([C@@H](C)O)NC(=O)[C@H](CC(=O)O)NC1=O` [Compound 533]: the IC50 was 0.017 µM.

On to `CC(C)C[C@@H]1NC(=O)c2ccc(-c3ccc(N4CCN(C(=O)COCC(=O)N5CCN(c6ccc(-c7ccc8cc7CNC(=O)[C@@H]7CCCN7[C@H](C(=O)NC(C)(C)C)[C@H](C)NC(=O)[C@H]([C@@H](C)O)NC(=O)[C@H](CC(=O)O)NC(=O)[C@H](CC(C)C)NC8=O)cc6)CC5)CC4)cc3)c(c2)CNC(=O)[C@@H]2CCCN2[C@H](C(=O)NC(C)(C)C)[C@H](C)NC(=O)[C@H]([C@@H](C)O)NC(=O)[C@H](CC(=O)O)NC1=O` [Compound 390], for which the IC50 stood at 0.013 µM.

In the case of `CC(C)C[C@@H]1NC(=O)c2ccc(-c3ccc(N4CCN(C(=O)c5ccc(-c6ccc(C(=O)N7CCN(c8ccc(-c9ccc%10cc9CNC(=O)[C@@H]9CCCN9[C@H](C(=O)NC(C)(C)C)[C@H](C)NC(=O)[C@H]([C@@H](C)O)NC(=O)[C@H](CC(=O)O)NC(=O)[C@H](CC(C)C)NC%10=O)cc8)CC7)cc6)cc5)CC4)cc3)c(c2)CNC(=O)[C@@H]2CCCN2[C@H](C(=O)NC(C)(C)C)[C@H](C)NC(=O)[C@H]([C@@H](C)O)NC(=O)[C@H](CC(=O)O)NC1=O` [Compound 474], the IC50 was 0.014 µM.

As to `CC(C)C[C@@H]1NC(=O)C[C@H](CCCCN)N(C)C(=O)[C@H](CCCCNC(=O)CCCCCCCCC(=O)NCCCC[C@@H]2NC(=O)[C@@H]3CCCN3[C@H](C(=O)NC(C)(C)C)[C@H](C)NC(=O)[C@H]([C@@H](C)O)NC(=O)[C@H](CC(=O)O)NC(=O)[C@H](CC(C)C)NC(=O)C[C@H](CCCCN)N(C)C2=O)NC(=O)[C@@H]2CCCN2[C@H](C(=O)NC(C)(C)C)[C@H](C)NC(=O)[C@H]([C@@H](C)O)NC(=O)[C@H](CC(=O)O)NC1=O` [Compound 530], the IC50 was 0.015 µM.

Still in this test, the particulars now being: RPMI8866 cells; read-out: IC50 in the RPMI8866 cell adhesion assay.
On to `CC(C)C[C@@H]1NC(=O)C[C@H](CCCCN)N(C)C(=O)[C@H](CCCCN)NC(=O)[C@@H]2CCCN2[C@H](C(=O)NC(C)(C)C)[C@H](C)NC(=O)[C@H]([C@@H](C)O)NC(=O)[C@H](CC(=O)O)NC1=O` [Compound 456], for which the IC50 was determined as 0.199 µM.
